Each structure is given as a SMILES string. Some results are limits rather than exact numbers.

The target of the first assay is T1, F508del (Homo sapiens, UniProt P13569, DEL508-508).
T1 construct: expressed in transfected cells
T1 sequence (P13569 with tags, fused parts or gaps DEL508-508): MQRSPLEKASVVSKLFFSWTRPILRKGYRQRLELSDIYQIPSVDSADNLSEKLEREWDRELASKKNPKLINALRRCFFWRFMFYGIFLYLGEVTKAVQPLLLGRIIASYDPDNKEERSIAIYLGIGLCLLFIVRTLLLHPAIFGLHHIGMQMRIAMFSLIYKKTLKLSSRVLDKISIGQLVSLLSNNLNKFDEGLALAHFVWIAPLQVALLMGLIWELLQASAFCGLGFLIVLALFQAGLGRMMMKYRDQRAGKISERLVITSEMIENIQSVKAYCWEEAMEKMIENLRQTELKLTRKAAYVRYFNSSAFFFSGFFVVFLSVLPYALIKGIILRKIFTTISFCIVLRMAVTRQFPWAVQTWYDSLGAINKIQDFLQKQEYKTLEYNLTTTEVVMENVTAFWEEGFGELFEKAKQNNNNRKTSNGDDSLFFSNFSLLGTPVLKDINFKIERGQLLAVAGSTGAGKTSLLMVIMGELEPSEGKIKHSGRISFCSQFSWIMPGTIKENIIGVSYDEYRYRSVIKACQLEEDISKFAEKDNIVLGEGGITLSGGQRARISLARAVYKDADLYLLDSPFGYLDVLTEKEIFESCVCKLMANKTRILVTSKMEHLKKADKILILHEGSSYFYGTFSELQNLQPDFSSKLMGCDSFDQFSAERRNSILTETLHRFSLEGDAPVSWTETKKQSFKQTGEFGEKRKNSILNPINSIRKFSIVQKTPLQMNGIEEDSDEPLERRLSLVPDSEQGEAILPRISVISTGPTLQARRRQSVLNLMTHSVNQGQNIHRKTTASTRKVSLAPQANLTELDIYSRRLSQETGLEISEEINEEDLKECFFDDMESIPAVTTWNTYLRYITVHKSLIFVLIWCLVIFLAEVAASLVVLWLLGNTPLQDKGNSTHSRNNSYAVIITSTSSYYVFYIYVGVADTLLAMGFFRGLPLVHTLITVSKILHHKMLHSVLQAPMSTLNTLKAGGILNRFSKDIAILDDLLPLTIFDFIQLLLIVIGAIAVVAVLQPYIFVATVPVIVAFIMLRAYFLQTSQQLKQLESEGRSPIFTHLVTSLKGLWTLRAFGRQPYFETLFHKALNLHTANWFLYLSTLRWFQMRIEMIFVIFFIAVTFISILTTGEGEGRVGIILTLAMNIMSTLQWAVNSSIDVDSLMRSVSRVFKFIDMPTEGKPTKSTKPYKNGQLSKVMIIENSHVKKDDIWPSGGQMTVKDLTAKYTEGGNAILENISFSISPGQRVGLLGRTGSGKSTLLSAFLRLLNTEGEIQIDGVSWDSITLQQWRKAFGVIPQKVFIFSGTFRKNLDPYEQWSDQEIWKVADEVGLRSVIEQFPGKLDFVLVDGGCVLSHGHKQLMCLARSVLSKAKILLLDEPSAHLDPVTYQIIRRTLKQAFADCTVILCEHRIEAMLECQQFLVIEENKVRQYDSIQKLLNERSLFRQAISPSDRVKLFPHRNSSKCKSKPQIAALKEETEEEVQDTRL
As to the kind of experiment: Protocol 2: FRET membrane potential optical assay (VIPR), identification of correction compounds. The format is cell-based. Conditions: F508del CFTR modulator activity; compounds of Table 1; read-out: EC30. Put shortly: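 FRET read-out (CC2-DMPE donor, DiSBAC2(3) voltage-sensitive acceptor) of membrane depolarization on VIPR II. Corrector candidates incubated 16 hrs at 37° C. with NIH3T3 cells expressing F508del; temperature correction at 27° C. as positive control; stimulation by 10 μM forskolin, 20 μM genistein, chloride-free gluconate bath.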
Consider `CCOc1cc(C)cc(-c2ccc(C(=O)NS(=O)(=O)c3cc[nH]n3)c(N3C[C@@H](C)CC3(C)C)n2)n1` [Compound 2487, 6-(6-ethoxy-4-methyl-2-pyridyl)-N-(1H-pyrazol-3-ylsulfonyl)-2-[(4S)-2,2,4-trimethylpyrrolidin-1-yl]pyridine-3-carboxamide], for which the 30% effect concentration (EC30) was less than 3 µM.

For the compound `CC(=O)Nc1cccc(Oc2cccc(S(=O)(=O)NC(=O)c3cccnc3N3CC(C)CC3(C)C)n2)c1` (centres unmarked) [Compound 2433, N—[[6-(3-acetamidophenoxy)-2-pyridyl]sulfonyl]-2-(2,2,4-trimethylpyrrolidin-1-yl)pyridine-3-carboxamide], the EC30 fell in the range of 3 to 10 µM.

Consider `COc1cc(CO)cc(-c2ccc(C(=O)NS(=O)(=O)c3cccnc3N)c(N3C[C@@H](C)CC3(C)C)n2)c1` [Compound 2065, N-[(2-amino-3-pyridyl)sulfonyl]-6-[3-(hydroxymethyl)-5-methoxy-phenyl]-2-[(4S)-2,2,4-trimethylpyrrolidin-1-yl]pyridine-3-carboxamide], for which the EC30 is less than 3 µM.

For `CC1CN(c2ncccc2C(=O)NS(=O)(=O)c2cccc(Nc3c(F)cc(F)cc3F)n2)C(C)(C)C1` (centres unmarked) [Compound 2106, N—[[6-(2,4,6-trifluoroanilino)-2-pyridyl]sulfonyl]-2-(2,2,4-trimethylpyrrolidin-1-yl)pyridine-3-carboxamide], the concentration for an effect of 30% (EC30) is less than 3 µM.

For `CC(C)COc1cc(F)cc(-c2nc(N3C[C@@H](C)CC3(C)C)cnc2C(=O)NS(=O)(=O)c2cccc(N)n2)c1` [Compound 2673, N-[(6-amino-2-pyridyl)sulfonyl]-3-(3-fluoro-5-isobutoxy-phenyl)-5-[(4S)-2,2,4-trimethylpyrrolidin-1-yl]pyrazine-2-carboxamide], the 30% effect concentration (EC30) was less than 3 µM.

Regarding `CCCCOc1cccc(S(=O)(=O)NC(=O)c2cccnc2N2CC(C)CC2(C)C)n1` (centres unmarked) [Compound 2167, N-[(6-butoxy-2-pyridyl)sulfonyl]-2-(2,2,4-trimethylpyrrolidin-1-yl)pyridine-3-carboxamide], the EC30 is less than 3 µM.

Take `C[C@@H]1CN(c2nc(C(C)(C)C)c(C3=CCN(C(=O)Cc4ccccc4)CC3)cc2C(=O)NS(=O)(=O)c2cccc(N)n2)C(C)(C)C1` [Compound 2417, N-[(6-amino-2-pyridyl)sulfonyl]-6-tert-butyl-5-[1-(2-phenylacetyl)-3,6-dihydro-2H-pyridin-4-yl]-2-[(4S)-2,2,4-trimethylpyrrolidin-1-yl]pyridine-3-carboxamide]: the concentration for an effect of 30% (EC30) was less than 3 µM.

Consider `CCOc1cc(-c2ccc(C(=O)NS(=O)(=O)c3ccc[nH]c3=O)c(N3C[C@@H](C)CC3(C)C)n2)ccc1F` [Compound 2459, 6-(3-ethoxy-4-fluoro-phenyl)-N-[(2-oxo-1H-pyridin-3-yl)sulfonyl]-2-[(4S)-2,2,4-trimethylpyrrolidin-1-yl]pyridine-3-carboxamide], for which the concentration for an effect of 30% (EC30) is less than 3 µM.

Turning to `COc1ccc(Cl)cc1Oc1cccc(S(=O)(=O)NC(=O)c2cccnc2N2CC(C)CC2(C)C)n1` (centres unmarked) [Compound 2503, N—[[6-(5-chloro-2-methoxy-phenoxy)-2-pyridyl]sulfonyl]-2-(2,2,4-trimethylpyrrolidin-1-yl)pyridine-3-carboxamide], the EC30 is less than 3 µM.

`CCOc1ccc(Nc2cccc(S(=O)(=O)NC(=O)c3cccnc3N3CC(C)CC3(C)C)n2)cc1` (centres unmarked) [Compound 2214, N—[[6-(4-ethoxyanilino)-2-pyridyl]sulfonyl]-2-(2,2,4-trimethylpyrrolidin-1-yl)pyridine-3-carboxamide]: the EC30 is less than 3 µM.

Regarding `CC1CN(c2ncccc2C(=O)NS(=O)(=O)c2cccc(OC3CCCCCC3)n2)C(C)(C)C1` (centres unmarked) [Compound 2252, N—[[6-(cycloheptoxy)-2-pyridyl]sulfonyl]-2-(2,2,4-trimethylpyrrolidin-1-yl)pyridine-3-carboxamide], the EC30 is less than 3 µM.

For `C[C@@H]1CN(c2nc(-c3ccc4ccccc4c3)ccc2C(=O)NS(=O)(=O)c2cccnc2N)C(C)(C)C1` [Compound 2280, N-[(2-amino-3-pyridyl)sulfonyl]-6-(2-naphthyl)-2-[(4S)-2,2,4-trimethylpyrrolidin-1-yl]pyridine-3-carboxamide], the EC30 is less than 3 µM.

As for `Cc1cccc(-c2ccc(C(=O)NS(=O)(=O)c3cccc(N)n3)c(N3C[C@@H](C)CC3(C)C)n2)c1O` [Compound 2203, N-[(6-amino-2-pyridyl)sulfonyl]-6-(2-hydroxy-3-methyl-phenyl)-2-[(4S)-2,2,4-trimethylpyrrolidin-1-yl]pyridine-3-carboxamide], the concentration for an effect of 30% (EC30) is less than 3 µM.

For the compound `CCOc1ccc(F)cc1-c1ccc(C(=O)NS(=O)(=O)c2cccnc2N)c(N2C[C@@H](C)CC2(C)C)n1` [Compound 2071, N-[(2-amino-3-pyridyl)sulfonyl]-6-(2-ethoxy-5-fluoro-phenyl)-2-[(4S)-2,2,4-trimethylpyrrolidin-1-yl]pyridine-3-carboxamide], the EC30 was less than 3 µM.

Consider `CC(C)Cc1ccn(-c2ccc(C(=O)NS(=O)(=O)c3cccnc3N)c(N3C[C@@H](C)CC3(C)C)n2)n1` [Compound 2036, N-[(2-amino-3-pyridyl)sulfonyl]-6-(3-isobutylpyrazol-1-yl)-2-[(4S)-2,2,4-trimethylpyrrolidin-1-yl]pyridine-3-carboxamide], for which the concentration for an effect of 30% (EC30) is less than 3 µM.

The assay is the same for the next values; noted with them: Table 3; compounds of Table 1 as modulators of CFTR activity; protocol not stated.
For the compound `Cc1cccc(-c2cc(C(=O)NS(=O)(=O)c3ccccc3)n(Cc3c(C)cccc3C)n2)c1` [Compound 202, N-(benzenesulfonyl)-2-[(2,6-dimethylphenyl)methyl]-5-(m-tolyl)pyrazole-3-carboxamide], the EC30 entry was “+++ (“+++” means <3 uM)”.

`CC1CCN(c2nc3c(cc2C(=O)NS(=O)(=O)c2nccnc2N)CCCC3(C)C)CC1` [Compound 197, N-(3-aminopyrazin-2-yl)sulfonyl-8,8-dimethyl-2-(4-methyl-1-piperidyl)-6,7-dihydro-5H-quinoline-3-carboxamide]: the EC30 result is given as “+++ (“+++” means <3 uM)”.

With `Cc1cc(C)c(Oc2nc(C(C)(C)C)ccc2C(=O)NS(=O)(=O)c2nc(N)cs2)c(C)c1` [Compound 265, N-(4-aminothiazol-2-yl)sulfonyl-6-tert-butyl-2-(2,4,6-trimethylphenoxy)pyridine-3-carboxamide], the concentration for an effect of 30% (EC30) entry is “+++ (“+++” means <3 uM)”.

For the compound `CCC(CC)Oc1cccc(-c2ccc(C(=O)NS(=O)(=O)c3cccc(N)n3)c(N3CC(C)CC3(C)C)n2)n1` (centres unmarked) [Compound 580, N-[(6-amino-2-pyridyl)sulfonyl]-6-[6-(1-ethylpropoxy)-2-pyridyl]-2-(2,2,4-trimethylpyrrolidin-1-yl)pyridine-3-carboxamide], the EC30 entry is “+++ (“+++” means <3 uM)”.

For the compound `CC(C)COc1cc(F)cc(-c2ccc(C(=O)NS(=O)(=O)c3cccc(N)n3)c(N3CCCCC3C)n2)c1` (centres unmarked) [Compound 425, N-[(6-amino-2-pyridyl)sulfonyl]-6-(3-fluoro-5-isobutoxy-phenyl)-2-(2-methyl-1-piperidyl)pyridine-3-carboxamide], the EC30 result was “+++ (“+++” means <3 uM)”.

In the case of `Cc1cc(C)c(Oc2nc(-c3ccc(C)nc3)ccc2C(=O)NS(=O)(=O)c2cccc(N)n2)c(C)c1` [Compound 513, N-[(6-amino-2-pyridyl)sulfonyl]-6-(6-methyl-3-pyridyl)-2-(2,4,6-trimethylphenoxy)pyridine-3-carboxamide], the 30% effect concentration (EC30) result was “++ (“++” means between 3 uM and 10 uM)”.

On to `CC(C)(C)c1ccc(C(=O)NS(=O)(=O)c2cccc(N)n2)c(N2CCC[C@H](c3ccccc3)C2)n1` [Compound 626, N-[(6-amino-2-pyridyl)sulfonyl]-6-tert-butyl-2-[(3R)-3-phenyl-1-piperidyl]pyridine-3-carboxamide], for which the 30% effect concentration (EC30) entry is “+++ (“+++” means <3 uM)”.

As to `CC(C)COc1cc(F)cc(-c2ccc(C(=O)NS(=O)(=O)c3cccc(N)n3)c(N3CC(C)CC3(C)C)n2)c1` (centres unmarked) [Compound 555, N-[(6-amino-2-pyridyl)sulfonyl]-6-(3-fluoro-5-isobutoxy-phenyl)-2-(2,2,4-trimethylpyrrolidin-1-yl)pyridine-3-carboxamide], the 30% effect concentration (EC30) entry is on record as “+++ (“+++” means <3 uM)”.

Turning to `Cc1cc(C)c(Oc2nc(-c3ccc(F)cc3)ccc2C(=O)NS(=O)(=O)c2cc[nH]n2)c(C)c1` [Compound 518, 6-(4-fluorophenyl)-N-(1H-pyrazol-3-ylsulfonyl)-2-(2,4,6-trimethylphenoxy)pyridine-3-carboxamide], the 30% effect concentration (EC30) entry was “+++ (“+++” means <3 uM)”.

For the compound `Cc1cc(C(=O)NS(=O)(=O)c2cccc(N)n2)c(N2CC(C)CC2(C)C)nc1-c1ccc(F)cc1` (centres unmarked) [Compound 763, N-[(6-amino-2-pyridyl)sulfonyl]-6-(4-fluorophenyl)-5-methyl-2-(2,2,4-trimethylpyrrolidin-1-yl)pyridine-3-carboxamide], the concentration for an effect of 30% (EC30) result is recorded as “+++ (“+++” means <3 uM)”.

As to `Cc1cc(C)c(Oc2nc(C(C)(C)C)ccc2C(=O)NS(=O)(=O)c2cccc(N)n2)c(C#N)c1` [Compound 767, N-[(6-amino-2-pyridyl)sulfonyl]-6-tert-butyl-2-(2-cyano-4,6-dimethyl-phenoxy)pyridine-3-carboxamide], the 30% effect concentration (EC30) entry is “+++ (“+++” means <3 uM)”.

For the compound `COc1ccc(F)cc1-c1ccc(C(=O)NS(=O)(=O)c2cccc(N)n2)c(Oc2c(C)cc(C)cc2C)n1` [Compound 700, N-[(6-amino-2-pyridyl)sulfonyl]-6-(5-fluoro-2-methoxy-phenyl)-2-(2,4,6-trimethylphenoxy)pyridine-3-carboxamide], the EC30 entry is “+++ (“+++” means <3 uM)”.

Turning to `Cc1cc(C)c(Cn2nc(C(C)(C)C)cc2C(=O)NS(=O)(=O)c2cccc(O)c2)c(C)c1` [Compound 84, 5-tert-butyl-N-(3-hydroxyphenyl)sulfonyl-2-[(2,4,6-trimethylphenyl)methyl]pyrazole-3-carboxamide], the EC30 entry is “+++ (“+++” means <3 uM)”.

In the case of `Cn1ccc2c(Cn3nc(C(C)(C)C)cc3C(=O)NS(=O)(=O)c3ccccc3)cccc21` [Compound 245, N-(benzenesulfonyl)-5-tert-butyl-2-[(1-methylindol-4-yl)methyl]pyrazole-3-carboxamide], the EC30 result was “++ (“++” means between 3 uM and 10 uM)”.

One may read the EC30 as the concentration at which the effect reaches the 30% level.

The record behind these values is patent US10758534B2 (Vertex Pharmaceuticals Incorporated, priority 2014, dated 2020).
